2 molecules from patent EP1550446A1, “Use of 1-(5-isoquinolinesulfonyl) homopiperazine for treating and preventing hypopigmentary disorders” (priority 2003, dated 2005) can be followed below.

In data set [1] the test system is human melanoma cell line (Mel-Ho). The data set can be described thus: Melanocyte dendrite outgrowth assay. Type of data set: cell-based. Particulars: Mel-Ho cells; for dendrite formation (dendricity): 100 µM, treated for 24 hours, digital photography (Figure 1). An excerpt:
A possibility to test the effect of a compound on melanocyte function as a measure for pigmentation, the melanocyte dendrite outgrowth assay can be performed. Vitiligo melanocytes for example have only stubby dendrites. Increasing dendricity as a prerequisite for the transfer of the melanosomes from melanocytes to the surrounding keratinocytes rescues this defect. For this assay, cells from a human melanoma cell line (Mel-Ho) were obtained from DSMZ (Deutsche Sammlung für Mikroorganismen und Zellkulturen) and were cultured according to the protocol provided by DSMZ. In short, after thawing the melanocytes were cultured in T-75 flasks in melanocyte culture media (provided by the manufacturer) until they reach 70-80% confluency. The melanocytes were then trypsinized, transferred into 5-10 new T-75 flasks, and grown again to same confluency as described above. After this expansion step the melanocytes were immediately used for the Melanocyte Dendrite Outgrowth Assay or were frozen for later use. […] Forskolin is known to cause increased melanocyte dendricity and was used as a positive control. […] Melanocyte dendrite outgrowth was documented by digital photography (Canon G2 Powershot) after 3, 6 and 24 hours.

In data set [2] the test system is normal human epidermal keratinocytes (neonatal keratinocytes, NHEK). On the procedure:
To test a possible cytotoxic effect resulting in a morphological change of keratinocytes, normal human epidermal keratinocytes were obtained from Clonetics (neonatal keratinocytes, NHEK) and were cultured according to the manufacturers' protocol. In short, after thawing, the keratinocytes were cultured in T-75 flasks in keratinocyte culture media (provided by the manufacturer) until they reached 70-80% confluency. The keratinocytes were then trypsinized, transferred into new T-75 flasks at a density of 3500 cells/cm^2. After this expansion step the keratinocytes were immediately used for the cytotoxic assay procedure or were frozen for later use. […] Cells treated with media only were used as a negative control. Photos were taken at 3, 6 and 24 hours after stimulation for documentary reasons.

In data set [3] the test system is HaCaT keratinocytes.

As to `Cl.Cl.O=S(=O)(c1cccc2cnccc12)N1CCCNCC1` [1-(5-isoquinolinesulfonyl)homopiperazine dihydrochloride], the “dendrite formation (dendricity)” value in data set [1] is on record as “dendricity was strongly stimulated”. For the same molecule, the dendrite formation entry in data set [1] (concentrations lower than 100 µM) is “sufficient to induce dendrite formation”. The “morphological changes as a measure for cytotoxicity” value in data set [2] and in data set [3] was “No morphological changes” throughout.
With `O=S(=O)(c1cccc2cnccc12)N1CCCNCC1` [1-(5-isoquinolinesulfonyl)homopiperazine], the “dendrite formation (dendricity)” value in data set [1] is given as “strong dendrite formation”. In addition, the “morphological changes as a measure for cytotoxicity” value in data set [2] and in data set [3] was “normal morphology” in each case.
